Assay results from patent publication US9598423B2 (BRISTOL-MYERS SQUIBB COMPANY, priority 2013, dated 2017).

Key:
CK1δ = CK1δ (Homo sapiens (Human), UniProt P48730); experiment: CK1δ kinase assay (Caliper LABCHIP electrophoretic separation of fluoresceinated peptide substrate and product); type: biochemical; settings: 200 pM CK1δ, 50 μM ATP, 1.5 μM peptide substrate, 22 hours at room temperature; read-out: CK1δ (IC50)
Procedure: (§1) CK1ε and CK1δ Kinase Assays
(§2) The kinase assay was performed in V-bottom 384-well plates. […] The reaction was incubated at room temperature for 22 hours and terminated by adding 45 μl of 35 mM EDTA to each sample. The reaction mixture was analyzed on the Caliper LABCHIP®3000 (Caliper, Hopkinton, Mass.) by electrophoretic separation of the unphosphorylated substrate and phosphorylated product. […] Compounds were dissolved at 10 mM in dimethylsulfoxide (DMSO) and evaluated at eleven concentrations. IC50 values were derived by non-linear regression analysis.

CK1ε = CK1ε (Homo sapiens (Human), UniProt P49674); experiment: CK1ε kinase assay (Caliper LABCHIP electrophoretic separation of fluoresceinated peptide substrate and product); type: biochemical; settings: 200 pM CK1ε, 50 μM ATP, 1.5 μM peptide substrate, 22 hours at room temperature; read-out: CK1ε (IC50)
Chain of CK1ε (P49674 whole entry): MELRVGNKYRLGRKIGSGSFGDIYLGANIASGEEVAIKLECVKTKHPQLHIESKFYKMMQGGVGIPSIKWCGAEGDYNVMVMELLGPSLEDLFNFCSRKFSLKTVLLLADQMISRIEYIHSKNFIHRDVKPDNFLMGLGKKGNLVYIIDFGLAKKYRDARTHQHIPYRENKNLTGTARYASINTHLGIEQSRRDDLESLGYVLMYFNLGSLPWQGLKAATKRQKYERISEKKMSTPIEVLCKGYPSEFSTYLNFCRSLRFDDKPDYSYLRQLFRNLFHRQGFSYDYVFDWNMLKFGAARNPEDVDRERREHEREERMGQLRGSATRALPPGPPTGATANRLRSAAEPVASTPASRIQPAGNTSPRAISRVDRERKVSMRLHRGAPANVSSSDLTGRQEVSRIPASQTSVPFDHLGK
Procedure: as §1, §2

Chain of CK1δ (P48730 whole entry): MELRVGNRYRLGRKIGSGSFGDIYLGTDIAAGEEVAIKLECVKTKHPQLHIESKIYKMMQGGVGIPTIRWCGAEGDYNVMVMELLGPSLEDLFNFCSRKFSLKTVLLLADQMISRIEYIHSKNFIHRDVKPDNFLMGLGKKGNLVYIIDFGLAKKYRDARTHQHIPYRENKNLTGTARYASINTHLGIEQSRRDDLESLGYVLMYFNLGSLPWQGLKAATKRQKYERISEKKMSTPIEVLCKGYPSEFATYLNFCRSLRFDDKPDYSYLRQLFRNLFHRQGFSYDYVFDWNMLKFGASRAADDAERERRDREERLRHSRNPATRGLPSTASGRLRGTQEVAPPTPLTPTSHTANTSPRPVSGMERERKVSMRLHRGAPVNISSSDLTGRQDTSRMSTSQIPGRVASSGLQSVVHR

Structure (SMILES)	IC50 (CK1δ) [nM]	IC50 (CK1ε) [nM]
CS(=O)(=O)c1ccc(-c2nn3c(c2C(N)=O)CN(C(=O)Nc2ccc(C#N)cc2)CC3)cc1 [Compound 290, N^5-(4-Cyanophenyl)-2-(4-(methylsulfonyl)phenyl)-6,7-dihydropyrazolo[1,5-a] pyrazine-3,5(4H)-dicarboxamide]	100 to 2000	100 to 2000
N#Cc1ccc(NC(=O)N2CCn3nc(-c4cccc(OC(F)(F)F)c4)c(C(N)=O)c3C2)cc1 [Compound 284, N^5-(4-Cyanophenyl)-2-(3-(trifluoromethoxy)phenyl)-6,7-dihydropyrazolo[1,5-a] pyrazine-3,5(4H)-dicarboxamide]	10 to 100	10 to 100
N#Cc1ccc(NC(=O)N2CCn3nc(-c4ccc5c(c4)OCO5)c(C(N)=O)c3C2)cc1 [Compound 277, 2-(Benzo[d][1,3]dioxol-5-yl)-N^5-(4-cyanophenyl)-6,7-dihydropyrazolo[1,5-a] pyrazine-3,5(4H)-dicarboxamide]	10 to 100	0.01 to 10
N#Cc1ccc(NC(=O)N2Cc3c(C(N)=O)c(-c4ccc(F)c(Cl)c4)nn3C(C(=O)NC3CCOCC3)C2)cc1 (single isomer, unassigned) [Compound A28, 2-(3-Chloro-4-fluorophenyl)-N^5-(4-cyanophenyl)-N^7-(tetrahydro-2H-pyran-4-yl)-6,7-dihydropyrazolo[1,5-a]pyrazine-3,5,7(4H)-tricarboxamide]	10 to 100	10 to 100
NC(=O)c1c(-c2ccc(F)cc2)nn2c1CN(C(=O)NC1CCCCC1)CC2 [Compound 3, N^5-Cyclohexyl-2-(4-fluorophenyl)-6,7-dihydropyrazolo[1,5-a]pyrazine-3,5(4H)-dicarboxamide]	0.01 to 10	–
NC(=O)c1c(-c2cccc(F)c2)nn2c1CN(C(=O)Nc1ccc(F)c(F)c1)CC2 [Compound 29, N^5-(3,4-Difluorophenyl)-2-(3-fluorophenyl)-6,7-dihydropyrazolo[1,5-a]pyrazine-3,5(4H)-dicarboxamide]	0.01 to 10	–
NC(=O)c1c(-c2cccc(F)c2)nn2c1CN(C(=O)Nc1cc(Cl)ccc1F)CC2 [Compound 33, N^5-(5-Chloro-2-fluorophenyl)-2-(3-fluorophenyl)-6,7-dihydropyrazolo[1,5-a]pyrazine-3,5(4H)-dicarboxamide]	0.01 to 10	–
CC(C)(C)NC(=O)N1CCn2nc(-c3cc(F)cc(F)c3)c(C(N)=O)c2C1 [Compound 105, N^5-(tert-Butyl)-2-(3,5-difluorophenyl)-6,7-dihydropyrazolo[1,5-a]pyrazine-3,5(4H)-dicarboxamide]	0.01 to 10	–
NC(=O)c1c(-c2cccc(F)c2)nn2c1CN(C(=O)Nc1ccnc(Cl)c1)CC2 [Compound 90, N^5-(2-Chloropyridin-4-yl)-2-(3-fluorophenyl)-6,7-dihydropyrazolo[1,5-a]pyrazine-3,5(4H)-dicarboxamide]	0.01 to 10	–
N#Cc1ccc(NC(=O)N2Cc3c(C(N)=O)c(-c4ccc(F)c(Cl)c4)nn3C(C(F)F)C2)cc1Cl (centres unmarked) [Compound A19, N^5-(3-Chloro-4-cyanophenyl)-2-(3-chloro-4-fluorophenyl)-7-(difluoromethyl)-6,7-dihydropyrazolo[1,5-a]pyrazine-3,5(4H)-dicarboxamide]	0.01 to 10	–
COc1ccc(NC(=O)N2CCn3nc(-c4cccc(F)c4)c(C(N)=O)c3C2)cc1OC [Compound 66, N^5-(3,4-Dimethoxyphenyl)-2-(3-fluorophenyl)-6,7-dihydropyrazolo[1,5-a]pyrazine-3,5(4H)-dicarboxamide]	0.01 to 10	–
NC(=O)c1c(-c2cccc(F)c2)nn2c1CN(C(=O)Nc1cncnc1)CC2 [Compound 84, 2-(3-Fluorophenyl)-N^5-(pyrimidin-5-yl)-6,7-dihydropyrazolo[1,5-a]pyrazine-3,5(4H)-dicarboxamide]	0.01 to 10	–
NC(=O)c1c(-c2cccc(F)c2)nn2c1CN(C(=O)Nc1ccc(OC(F)F)cc1)CC2 [Compound 89, N^5-(4-(Difluoromethoxy)phenyl)-2-(3-fluorophenyl)-6,7-dihydropyrazolo[1,5-a]pyrazine-3,5(4H)-dicarboxamide]	0.01 to 10	–
CSc1cccc(-c2nn3c(c2C(N)=O)CN(C(=O)NC(C)(C)C)CC3)c1 [Compound 150, N^5-(tert-Butyl)-2-(3-(methylthio)phenyl)-6,7-dihydropyrazolo[1,5-a]pyrazine-3,5(4H)-dicarboxamide]	0.01 to 10	–
NC(=O)c1c(-c2cccc(F)c2)nn2c1CN(C(=O)Nc1ccc(F)nc1)CC2 [Compound 87, 2-(3-Fluorophenyl)-N^5-(6-fluoropyridin-3-yl)-6,7-dihydropyrazolo[1,5-a]pyrazine-3,5(4H)-dicarboxamide]	0.01 to 10	–
CC(C)(NC(=O)N1CCn2nc(-c3cccc(F)c3)c(C(N)=O)c2C1)c1ccc(F)cc1 [Compound 17, 2-(3-Fluorophenyl)-N^5-(2-(4-fluorophenyl)propan-2-yl)-6,7-dihydropyrazolo[1,5-a]pyrazine-3,5(4H)-dicarboxamide]	0.01 to 10	–

Second part, the molecule after the results:

IC50 (CK1δ) [nM]	IC50 (CK1ε) [nM]	Structure (SMILES)
0.01 to 10	10 to 100	NC(=O)c1c(-c2cccc(F)c2)nn2c1CN(C(=O)NC1C[C@H]1c1ccccc1)CC2 (stereo in doubt) [Compound 44, 2-(3-Fluorophenyl)-N^5-((1R,2S)-2-phenylcyclopropyl)-6,7-dihydropyrazolo[1,5-a]pyrazine-3,5(4H)-dicarboxamide]
0.01 to 10	0.01 to 10	NC(=O)c1c(-c2cccc(F)c2)nn2c1CN(C(=O)Nc1ccnnc1)CC2 [Compound 82, 2-(3-Fluorophenyl)-N^5-(pyridazin-4-yl)-6,7-dihydropyrazolo[1,5-a]pyrazine-3,5(4H)-dicarboxamide]
0.01 to 10	0.01 to 10	CC1Cn2nc(-c3cccc(Cl)c3)c(C(N)=O)c2CN1C(=O)Nc1ccc(C#N)cc1 (single isomer, unassigned) [Compound 331, 2-(3-Chlorophenyl)-N^5-(4-cyanophenyl)-6-methyl-6,7-dihydropyrazolo[1,5-a]pyrazine-3,5(4H)-dicarboxamide]
0.01 to 10	0.01 to 10	Cc1ccc(-c2nn3c(c2C(N)=O)CN(C(=O)Nc2ccc(C#N)c(Cl)c2)CC3)cc1Cl [Compound 256, N^5-(3-Chloro-4-cyanophenyl)-2-(3-chloro-4-methylphenyl)-6,7-dihydropyrazolo[1,5-a] pyrazine-3,5(4H)-dicarboxamide]
0.01 to 10	0.01 to 10	Cc1nn(C)c2c(Cl)cc(-c3nn4c(c3C(N)=O)CN(C(=O)Nc3ccc(C#N)cc3)CC4)cc12 [Compound 322, 2-(7-Chloro-1,3-dimethyl-1H-indazol-5-yl)-N-(4-cyanophenyl)-6,7-dihydropyrazolo[1,5-a]pyrazine-3,5(4H)-dicarboxamide]
0.01 to 10	0.01 to 10	Cc1cc(NC(=O)N2CCn3nc(-c4cccc(F)c4)c(C(N)=O)c3C2)ccc1C#N [Compound A55, N^5-(4-Cyano-3-methylphenyl)-2-(3-fluorophenyl)-6,7-dihydropyrazolo[1,5-a]pyrazine-3,5(4H)-dicarboxamide]
0.01 to 10	0.01 to 10	NC(=O)c1c(-c2ccc(F)c(Cl)c2)nn2c1CN(C(=O)Nc1cc(F)c(F)c(F)c1)CC2 [Compound 187, 2-(3-Chloro-4-fluorophenyl)-N^5-(3,4,5-trifluorophenyl)-6,7-dihydropyrazolo[1,5-a] pyrazine-3,5(4H)-dicarboxamide]
0.01 to 10	0.01 to 10	Cc1nc2cc(-c3nn4c(c3C(N)=O)CN(C(=O)Nc3ccc(C#N)c(C)c3)CC4)cc(Cl)c2o1 [Compound 313, 2-(7-Chloro-2-methylbenzo[d]oxazol-5-yl)-N^5-(4-cyano-3-methylphenyl)-6,7-dihydropyrazolo[1,5-a]pyrazine-3,5(4H)-dicarboxamide]
0.01 to 10	0.01 to 10	NC(=O)c1c(-c2cccc(Cl)c2)nn2c1CN(C(=O)Nc1cc(F)cc(F)c1)CC2 [Compound 169, 2-(3-Chlorophenyl)-N^5-(3,5-difluorophenyl)-6,7-dihydropyrazolo[1,5-a] pyrazine-3,5(4H)-dicarboxamide]
0.01 to 10	0.01 to 10	Cc1ccc(-c2nn3c(c2C(N)=O)CN(C(=O)Nc2ccc4ncsc4c2)CC3)cc1Cl [Compound 254, N^5-(Benzo[d]thiazol-6-yl)-2-(3-chloro-4-methylphenyl)-6,7-dihydropyrazolo[1,5-a] pyrazine-3,5(4H)-dicarboxamide]
0.01 to 10	0.01 to 10	N#Cc1ccc(NC(=O)N2CCn3nc(-c4cnc(Cl)c(Cl)c4)c(C(N)=O)c3C2)cc1 [Compound 297, N^5-(4-Cyanophenyl)-2-(5,6-dichloropyridin-3-yl)-6,7-dihydropyrazolo[1,5-a]pyrazine-3,5(4H)-dicarboxamide]
0.01 to 10	0.01 to 10	CC(C)(C)NC(=O)N1CCn2nc(-c3cnc4ccccc4c3)c(C(N)=O)c2C1 [Compound 119, N^5-(tert-Butyl)-2-(quinolin-3-yl)-6,7-dihydropyrazolo[1,5-a]pyrazine-3,5(4H)-dicarboxamide]
0.01 to 10	0.01 to 10	N#Cc1ccc(NC(=O)N2CCn3nc(-c4cc(F)cc(Cl)c4)c(C(N)=O)c3C2)cc1F [Compound 215, 2-(3-Chloro-5-fluorophenyl)-N^5-(4-cyano-3-fluorophenyl)-6,7-dihydropyrazolo[1,5-a]pyrazine-3,5(4H)-dicarboxamide]
0.01 to 10	–	Cc1ccc(NC(=O)N2CCn3nc(-c4cccc(F)c4)c(C(N)=O)c3C2)cn1 [Compound 86, 2-(3-Fluorophenyl)-N^5-(6-methylpyridin-3-yl)-6,7-dihydropyrazolo[1,5-a]pyrazine-3,5(4H)-dicarboxamide]
